Experimental data from PubChem BioAssay AID463174 (Southern Research Specialized Biocontainment Screening …, 2010).
Activity calls are given as the source filed them. How the calls were made is not given here.

Test system: not listed separately
Assay: late-stage follow-up, counter-screen for PhoP regulon inhibitor project, purified and synthesized compounds, set 5 (AID 463174)
Conditions: S. Typhi promoter-GFP counter-screen, fluorescence, 4 h; at 150 µM (top of the series)

| Compound | inhibition |
| --- | --- |
| Clc1ccc(C2Sc3ccccc3N=C3c4ccccc4CC32)cc1 (stereo unspecified) | -48.2% (inactive) |
| COc1cccc(NC(=O)N2CCCN(Cc3ccccc3F)C2)c1 | -3.56% (inactive) |
| Cc1ccc(C2Sc3ccccc3N=C3c4ccccc4CC32)cc1 (stereo unspecified) | -45.3% (inactive) |
| O=C1C2=C(Nc3ccccc3SC2c2cccnc2)c2ccccc21 (stereo unspecified) | -32.9% (inactive) |
| O=C1C2=C(Nc3ccccc3SC2c2cccc(Br)c2)c2ccccc21 (stereo unspecified) | -12.6% (inactive) |

Test system: S. Typhi promoter-GFP counter-screen, fluorescence, 4 h
Assay: as above
Conditions: not given

| Compound | IC50 |
| --- | --- |
| O=C1C2=C(Nc3ccccc3SC2c2ccc(Cl)cc2)c2ccccc21 (stereo unspecified) | 89.6 µM |
